PubChem BioAssay (NCI)
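All cell lines were grown in 96-well plates and treated with compound for 48 hours. GI50 = concentration required for 50% inhibition of growth. TGI: total growth inhibition.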

Tests used:
Assay in all cases: NCI anticancer screen, dose series, 48 h
[1] = system: OVCAR-5 ovarian
[2] = system: SN12C renal
[3] = system: K-562 leukemia
[4] = system: U251 CNS
[5] = system: LOX IMVI melanoma
[6] = system: MCF7 breast
[7] = system: TK-10 renal
[8] = system: NCI-H23 lung
[9] = system: OVCAR-4 ovarian
[10] = system: RPMI-8226 leukemia
[11] = system: OVCAR-3 ovarian
[12] = system: M14 melanoma
[13] = system: T-47D breast
[14] = system: A498 renal
[15] = system: SK-MEL-28 melanoma
[16] = system: DU-145 prostate
[17] = system: NCI-H522 lung
[18] = system: HCC-2998 colon
[19] = system: SK-MEL-5 melanoma
[20] = system: UO-31 renal
[21] = system: SNB-75 CNS
[22] = system: NCI/ADR-RES ovarian
[23] = system: HT29 colon
[24] = system: MDA-MB-435
[25] = system: HOP-62 NSCLC
[26] = system: PC-3 prostate
[27] = system: HCT-15 colon
[28] = system: SNB-19 CNS
[29] = system: EKVX NSCLC
[30] = system: IGROV1 ovarian
[31] = system: SK-OV-3 ovarian
[32] = system: HOP-92 NSCLC
[33] = system: BT-549 breast
[34] = system: MDA-MB-231 breast
[35] = system: CCRF-CEM leukemia
[36] = system: COLO 205 colon
[37] = system: SF-539 CNS
[38] = system: UACC-257 melanoma
[39] = system: HL-60(TB) leukemia
[40] = system: MOLT-4 leukemia
[41] = system: SR leukemia
[42] = system: NCI-H460 lung
[43] = system: MALME-3M melanoma
[44] = system: HS 578T breast
[45] = system: RXF 393 renal
[46] = system: SF-295 CNS
[47] = system: ACHN renal
[48] = system: CAKI-1 renal
[49] = system: UACC-62 melanoma
[50] = system: SW-620 colon
[51] = system: MDA-MB-468 breast
[52] = system: 786-0 renal
[53] = system: SF-268 CNS
[54] = system: NCI-H226 lung
[55] = system: A549 NSCLC
[56] = system: SK-MEL-2 melanoma
[57] = system: KM12 colon
[58] = system: HCT-116 colon
[59] = system: OVCAR-8 ovarian

In the case of `NS(=O)(=O)c1cccc(Nc2nc(SCC(=O)c3ccc(F)cc3)nc3ccccc23)c1`, the GI50 [1] is reported as 24.5 µM, the TGI [1] is reported as greater than 57.7 µM and the GI50 [2] is reported as 17.6 µM. The TGI [2] was greater than 57.7 µM, the GI50 [3] was 13 µM and the TGI [3] was greater than 57.7 µM. For the same compound, the GI50 [4] was 18.6 µM, the TGI [4] was greater than 57.7 µM and the GI50 [5] was 14.3 µM. The TGI [5] was greater than 57.7 µM, the GI50 [6] was 3.81 µM and the TGI [6] was greater than 57.7 µM. The GI50 [7] was greater than 57.7 µM, the TGI [7] was greater than 57.7 µM and the GI50 [8] was 16.5 µM. It also gave a TGI [8] greater than 57.7 µM, a GI50 [9] of 9.34 µM and a TGI [9] greater than 57.7 µM. It also gave a GI50 [10] of 12.7 µM, a TGI [10] greater than 57.7 µM and a GI50 [11] of 12.9 µM. For the same compound, the TGI [11] was greater than 57.7 µM, the GI50 [12] was 27.2 µM and the TGI [12] was greater than 57.7 µM. The GI50 [13] was 3.18 µM, the TGI [13] was greater than 57.7 µM and the GI50 [14] was greater than 57.7 µM. The TGI [14] was greater than 57.7 µM, the GI50 [15] was 20.4 µM and the TGI [15] was greater than 57.7 µM. The GI50 [16] was 19.9 µM, the TGI [16] was greater than 57.7 µM and the GI50 [17] was 11.7 µM. The TGI [17] was 54.3 µM, the GI50 [18] was 15.7 µM and the TGI [18] was greater than 57.7 µM. The GI50 [19] was 12.9 µM, the TGI [19] was 54.6 µM and the GI50 [20] was 15.5 µM. For the same compound, the TGI [20] was greater than 57.7 µM, the GI50 [21] was 3.64 µM and the TGI [21] was greater than 57.7 µM. It also gave a GI50 [22] of 37.3 µM, a TGI [22] greater than 57.7 µM and a GI50 [23] of 20 µM. It also gave a TGI [23] greater than 57.7 µM, a GI50 [24] of 14.2 µM and a TGI [24] greater than 57.7 µM. The GI50 [25] was 22.2 µM, the TGI [25] was greater than 57.7 µM and the GI50 [26] was 16.8 µM. It also gave a TGI [26] greater than 57.7 µM, a GI50 [27] of 11.6 µM and a TGI [27] greater than 57.7 µM. The GI50 [28] was 22.3 µM, the TGI [28] was greater than 57.7 µM and the GI50 [29] was 18.4 µM. For the same compound, the TGI [29] was greater than 57.7 µM, the GI50 [30] was 9.82 µM and the TGI [30] was greater than 57.7 µM. For the same compound, the GI50 [31] was 30.4 µM, the TGI [31] was greater than 57.7 µM and the GI50 [32] was 16.4 µM. The TGI [32] was greater than 57.7 µM, the GI50 [33] was 31.3 µM and the TGI [33] was greater than 57.7 µM. The GI50 [34] was 15.9 µM, the TGI [34] was greater than 57.7 µM and the GI50 [35] was 7.76 µM. For the same compound, the TGI [35] was greater than 57.7 µM, the GI50 [36] was 26.8 µM and the TGI [36] was greater than 57.7 µM. The GI50 [37] was 20 µM, the TGI [37] was greater than 57.7 µM and the GI50 [38] was 23.4 µM. For the same compound, the TGI [38] was greater than 57.7 µM, the GI50 [39] was 15 µM and the TGI [39] was 48.9 µM. It also gave a GI50 [40] of 7.43 µM, a TGI [40] of 41.3 µM and a GI50 [41] of 15.9 µM. For the same compound, the TGI [41] was greater than 57.7 µM, the GI50 [42] was 15.1 µM and the TGI [42] was greater than 57.7 µM. It also gave a GI50 [43] of 27.1 µM, a TGI [43] greater than 57.7 µM and a GI50 [44] of 12.9 µM. For the same compound, the TGI [44] was greater than 57.7 µM, the GI50 [45] was 16.5 µM and the TGI [45] was greater than 57.7 µM. It also gave a GI50 [46] of 14.6 µM, a TGI [46] greater than 57.7 µM and a GI50 [47] of 24.7 µM. The TGI [47] was greater than 57.7 µM, the GI50 [48] was 13.1 µM and the TGI [48] was greater than 57.7 µM. For the same compound, the GI50 [49] was 13.7 µM, the TGI [49] was greater than 57.7 µM and the GI50 [50] was 18.1 µM. For the same compound, the TGI [50] was greater than 57.7 µM, the GI50 [51] was 6.23 µM and the TGI [51] was 42.8 µM. For the same compound, the GI50 [52] was 39.1 µM, the TGI [52] was greater than 57.7 µM and the GI50 [53] was 21 µM. It also gave a TGI [53] greater than 57.7 µM, a GI50 [54] of 12.1 µM and a TGI [54] greater than 57.7 µM. The GI50 [55] was 26.8 µM, the TGI [55] was greater than 57.7 µM and the GI50 [56] was 13.5 µM. It also gave a TGI [56] greater than 57.7 µM, a GI50 [57] of 7.42 µM and a TGI [57] greater than 57.7 µM. For the same compound, the GI50 [58] was 15.3 µM, the TGI [58] was greater than 57.7 µM and the GI50 [59] was 19.6 µM. The TGI [59] was greater than 57.7 µM.
`CN1CCN(Cc2ccc(NC(=O)c3cncc(C#Cc4cnc5ccc(N[C@@H]6CCOC6)nn45)c3)cc2C(F)(F)F)CC1` was tested, and the GI50 [1] was 0.202 µM, the TGI [1] was 0.618 µM and the GI50 [2] was 0.034 µM. It also gave a TGI [2] of 0.271 µM, a GI50 [3] of less than 0.0097 µM and a TGI [3] of 10.1 µM. For the same compound, the GI50 [4] was 0.216 µM, the TGI [4] was 0.879 µM and the GI50 [5] was 0.0554 µM. It also gave a TGI [5] of 0.187 µM, a GI50 [6] of 0.0518 µM and a TGI [6] of 0.518 µM. For the same compound, the GI50 [7] was 0.245 µM, the TGI [7] was 0.646 µM and the GI50 [8] was 0.108 µM. For the same compound, the TGI [8] was 0.265 µM, the GI50 [9] was 0.138 µM and the TGI [9] was 0.646 µM. The GI50 [10] was 0.201 µM, the TGI [10] was 1.57 µM and the GI50 [11] was 0.125 µM. The TGI [11] was 0.509 µM, the GI50 [12] was 0.0784 µM and the TGI [12] was 0.245 µM. For the same compound, the GI50 [13] was 0.323 µM, the TGI [13] was 3.14 µM and the GI50 [14] was 0.269 µM. For the same compound, the TGI [14] was 0.475 µM, the GI50 [15] was 0.193 µM and the TGI [15] was 0.629 µM. The GI50 [16] was 0.148 µM, the TGI [16] was 0.557 µM and the GI50 [17] was 0.122 µM. The TGI [17] was 0.28 µM, the GI50 [18] was 0.198 µM and the TGI [18] was 0.553 µM. The GI50 [19] was 0.193 µM, the TGI [19] was 0.556 µM and the GI50 [20] was 1.19 µM. The TGI [20] was 2.93 µM, the GI50 [21] was 0.126 µM and the TGI [21] was 0.3 µM. It also gave a GI50 [22] of 2.78 µM, a TGI [22] of 17.1 µM and a GI50 [23] of 0.0879 µM. The TGI [23] was 0.415 µM, the GI50 [24] was 0.113 µM and the TGI [24] was 0.338 µM. The GI50 [25] was 0.104 µM, the TGI [25] was 0.355 µM and the GI50 [26] was 0.161 µM. The TGI [26] was 1.16 µM, the GI50 [27] was 0.335 µM and the TGI [27] was 1.37 µM. It also gave a GI50 [28] of 0.222 µM, a TGI [28] of 0.769 µM and a GI50 [29] of 0.12 µM. The TGI [29] was 0.383 µM, the GI50 [30] was 0.107 µM and the TGI [30] was 0.531 µM. The GI50 [31] was 0.274 µM, the TGI [31] was 0.713 µM and the GI50 [32] was 0.0277 µM. The TGI [32] was 0.133 µM, the GI50 [33] was 0.169 µM and the TGI [33] was 0.631 µM. For the same compound, the GI50 [34] was 0.0423 µM, the TGI [34] was 0.289 µM and the GI50 [35] was less than 0.0097 µM. The TGI [35] was 0.356 µM, the GI50 [36] was 0.0301 µM and the TGI [36] was 0.0868 µM. The GI50 [37] was 0.0193 µM, the TGI [37] was 0.0742 µM and the GI50 [38] was 0.361 µM. For the same compound, the TGI [38] was 4.38 µM, the GI50 [39] was 0.0855 µM and the TGI [39] was 0.759 µM. For the same compound, the GI50 [40] was 0.0266 µM, the TGI [40] was 0.919 µM and the GI50 [41] was 0.0992 µM. For the same compound, the TGI [41] was 7.32 µM, the GI50 [42] was 0.104 µM and the TGI [42] was 0.374 µM. The GI50 [43] was 0.0897 µM, the TGI [43] was 0.299 µM and the GI50 [44] was 0.0288 µM. The TGI [44] was 0.398 µM, the GI50 [45] was 0.0713 µM and the TGI [45] was 0.217 µM. For the same compound, the GI50 [46] was 0.0888 µM, the TGI [46] was 0.587 µM and the GI50 [47] was 0.256 µM. It also gave a TGI [47] of 1.04 µM, a GI50 [48] of 0.128 µM and a TGI [48] of 0.484 µM. It also gave a GI50 [49] of 0.156 µM, a TGI [49] of 0.539 µM and a GI50 [50] of 0.0944 µM. The TGI [50] was 0.603 µM, the GI50 [51] was 0.06 µM and the TGI [51] was 0.194 µM. For the same compound, the GI50 [52] was 0.235 µM, the TGI [52] was 0.712 µM and the GI50 [53] was 0.122 µM. For the same compound, the TGI [53] was 0.377 µM, the GI50 [54] was 0.0144 µM and the TGI [54] was 0.218 µM. It also gave a GI50 [55] of 0.138 µM, a TGI [55] of 1.01 µM and a GI50 [56] of 0.173 µM. It also gave a TGI [56] of 0.318 µM, a GI50 [57] of less than 0.0097 µM and a TGI [57] of 0.761 µM. It also gave a GI50 [58] of 0.0486 µM, a TGI [58] of 0.64 µM and a GI50 [59] of 0.189 µM. The TGI [59] was 0.963 µM.
